Entries after “also recorded” stand apart in the source; their conditions may differ. Like-named read-outs stand apart in the source and are kept apart here.
Assays:
[1] = Vital signs including heart and respiratory rate during PET study; format: in vivo, baboon (Papio anubis); details: at any time during the study; 5 mCi, 0.4 μg i.v.
Procedure: (§1) Adult female baboons were anesthetized and prepared for PET studies as described by Dewey et al., Synapse, 5, 213 (1990) the description of which is incorporated by reference herein. A solution of racemic 6-[^18 F]FNE (5 mCi, 0.4 μg) in 3 mL of saline was injected intravenously. Scanning was performed for 140 minutes in a Computer Technology Imaging (CTI) positron tomograph (model 931-08/12; 15 slice, 6.5-mm slice thickness, full width at half maximum (FWHM) with an in-plane resolution of 6.0×6.0 mm (FWHM). The following scanning protocol was used: ten 30-s scans, followed by five 60-s scans, followed by ten 5-minute scans, followed by eight 10-minute scans. In every case, an initial transmission scan was performed 2.0 minutes prior to radiotracer injection in order to determine the proper position of the animal in the gantry. Upon completion of this scan, adjustments in position were made as necessary and a regular transmission scan (10 minutes) was performed in order to correct for the attenuation of the annihilation photons. The tomograph was cross calibrated with the well-counter used for the measurement of radioactivity in the plasma samples. […] Vital signs including heart and respiratory rate were monitored and recorded throughout the length of the study. […]

[2] = Plasma/blood clearance of F-18 in the baboon; format: in vivo, baboon (Papio anubis); details: racemic, 5 mCi i.v.
Procedure: (§2) FIG. 8 is a time-activity curve for F-18 in the baboon mycocardium (left ventricular wall and septum) after injection of 5 mCi of racemic 6-[^18 F]FNE. FIG. 9 is a graph showing plasma clearance of F-18 in the baboon after injection of racemic 6-[^18 F]FNE. […] Radioactivity remained at 0.032% of the peak activity by 120 minutes post injection. The ratio of myocardium to plasma was 7 at 5 minutes and 11.2 at 135 minutes. The experiment was carried out as follows:
Adult female baboons were anesthetized and prepared for PET studies as described by Dewey et al., Synapse, 5, 213 (1990) the description of which is incorporated by reference herein. A solution of racemic 6-[^18 F]FNE (5 mCi, 0.4 μg) in 3 mL of saline was injected intravenously. […] The tomograph was cross calibrated with the well-counter used for the measurement of radioactivity in the plasma samples. […] Vital signs including heart and respiratory rate were monitored and recorded throughout the length of the study.

[3] = test system: baboon mycocardium (left ventricular wall and septum); experiment: PET study of baboon heart after injection of racemic 6-[^18 F]FNE; format: in vivo, baboon (Papio anubis)
Procedure: as §2
Adult female baboons were anesthetized and prepared for PET studies as described by Dewey et al., Synapse, 5, 213 (1990) the description of which is incorporated by reference herein. A solution of racemic 6-[^18 F]FNE (5 mCi, 0.4 μg) in 3 mL of saline was injected intravenously. Scanning was performed for 140 minutes in a Computer Technology Imaging (CTI) positron tomograph (model 931-08/12; 15 slice, 6.5-mm slice thickness, full width at half maximum (FWHM) with an in-plane resolution of 6.0×6.0 mm (FWHM). The following scanning protocol was used: ten 30-s scans, followed by five 60-s scans, followed by ten 5-minute scans, followed by eight 10-minute scans. In every case, an initial transmission scan was performed 2.0 minutes prior to radiotracer injection in order to determine the proper position of the animal in the gantry. Upon completion of this scan, adjustments in position were made as necessary and a regular transmission scan (10 minutes) was performed in order to correct for the attenuation of the annihilation photons. The tomograph was cross calibrated with the well-counter used for the measurement of radioactivity in the plasma samples. A rectilinear scan was performed by placing the baboon's head in the gantry and moving through the rostral caudal extent of the animal (10-mm increments) to include the bladder at the most caudal level. Scanning was performed for 1.5 minutes at each position. Vital signs including heart and respiratory rate were monitored and recorded throughout the length of the study.
The time-activity curve for F-18 after the injection of 6-[^18 F]FNE was generated from a region of interest over the left ventricular wall and the septum. Immediately following completion of the dynamic acquisition, a rectilinear scan (qualitative) was performed beginning at the head and continuing throughout the rostral-caudal extent of the trunk.

[4] = parameters: species or system baboon (Papio anubis); details: in vivo
Procedure: as §1

dopamine β-hydroxylase [5] = format: biochemical; details: pH 5.7, 30° C.; for product formed by dopamine β-hydroxylase: substrate incubation, chiral HPLC
Procedure: Two enzyme incubations, with dopamine and 6-fluorodopamine, respectively, were performed simultaneously, as follows:
12(a) Dopamine Hydroxylation. A mixture of 0.5 mg of dopamine, potassium phosphate buffer (0.3 mL, pH 5.7), 0.5M ascorbic acid (0.02 mL, pH 5.7), 1M sodium formate (0.05 mL), and dopamine β-hydroxylase solution (0.05 mL) was stirred in a closed vial at 30° C. The cap was removed and the vial was shaken periodically. An aliquot (ca. 1 μL) was withdrawn and subjected to chiral HPLC analysis as the reaction progressed. HPLC conditions were as follows: Crownpak CR (+) columns, 15×0.46 cm, 254 nm, 0.02M HClO4, 0.7 mL/min.
12(b) 6-Fluorodopamine Hydroxylation. The same procedure was used as described in 12(a), except 0.4 mg of 6-fluorodopamine, kindly provided by Dr. Kenneth Kirk at the National Institutes of Health, was used as a substrate.
Radiat. Isot., 41, 463 (1990) the disclosure of which is incorporated by reference herein, for [^11 C]octopamine enantiomers when a Crownpak CR(+) HPLC column was used.

dopamine β-hydroxylase [6] = details: Levin et al. 1960; Goldstein et al. 1962; cited from earlier work
[7] = tracers administered in vivo; Goldstein et al. 1990, Mislankar et al. 1988; cited from earlier work
dog heart = details: Wieland et al. 1990, Rosenspire et al. 1989; cited from earlier work
human heart = details: Schwaiger et al. 1990, Kopin 1990; cited from earlier work
[8] = literature; cited from earlier work
[9] = test system: adrenergic nerve terminals; details: cited from earlier work; for neuronal uptake and storage: literature
vesicular transporter = details: Matthaei et al. 1988; cited from earlier work

SMILES: NCC(O)c1cc(O)c(O)cc1[18F] (racemic) [racemic 6-[^18 F]FNE, 6-[^18 F]fluoronorepinephrine]
- change in vital signs [1]: no change in vital signs
- clearance from blood [2]: rapid clearance from blood
- peak concentration of F-18 in myocardium ([3]; 10 minutes post injection, 5 mCi racemic, i.v.): 0.042 % of the injected does/cc
- ratio of myocardium to plasma ([3]; at 5 minutes, 5 mCi i.v.): 7
- ratio of myocardium to plasma ([3]; at 135 minutes, 5 mCi i.v.): 11.2
- uptake and retention/clearance of F-18 in the baboon heart ([3]; racemic, 5 mCi i.v.): high uptake and retention; also recorded: high uptake and a slow clearance
- distribution of radioactivity [4]: Radioactivity was distributed in the parotid glands, the heart, liver, and bladder

SMILES: NCCc1ccc(O)c(O)c1 [dopamine]
- time to appearance of (-)-NE peak (dopamine β-hydroxylase [5]; dopamine as substrate): less than 1 hour
- product formed by dopamine β-hydroxylase (dopamine β-hydroxylase [5]): (+)-NE was not observed
- enantiospecific conversion by dopamine β-hydroxylase (dopamine β-hydroxylase [6]): enantiospecifically convert dopamine to (-)-norepinephrine

SMILES: NCCc1cc(O)c(O)cc1[18F] [[^18 F]dopamine, 6-[^18 F]fluorodopamine]
- vasoactivity / hemodynamic effects [7]: hemodynamic effects

SMILES: C[C@H](N[11CH3])[C@H](O)c1cccc(O)c1 [[^11 C]m-hydroxyephedrine]
- images of the neuronal distribution (dog heart): excellent images
- images of the neuronal distribution (human heart): excellent images
- metabolic stability [8]: metabolically stable
- neuronal uptake and storage [9]: share the same uptake and storage mechanisms as norepinephrine

SMILES: NC[C@H](O)c1ccc(O)c(O)c1 [norepinephrine]
- stereoselectivity for vesicular transporter (vesicular transporter): only the levorotatory enantiomer serves as a substrate for the vesicular transporter
- stereoselectivity of neuronal uptake ([9]; Matthaei et al. 1988): not stereoselective

SMILES: NCCc1cc(O)c(O)cc1F [6-fluorodopamine]
- product formed by dopamine β-hydroxylase (dopamine β-hydroxylase [5]): a new HPLC peak at 18 minutes appeared
- neuronal uptake and storage [9]: share the same presynaptic mechanisms for the uptake, storage, and synthesis as the parent molecules

SMILES: C[C@H](N)[C@H](O)c1cc(O)ccc1[18F] [[^18 F]fluorometaraminol]
- images of the neuronal distribution (dog heart): excellent images
- images of the neuronal distribution (human heart): excellent images
- metabolic stability [8]: metabolically stable
- vasoactivity / hemodynamic effects [7]: hemodynamic effects
- neuronal uptake and storage [9]: share the same uptake and storage mechanisms as norepinephrine

SMILES: NCC(O)c1cc(O)c(O)cc1F (racemic) [6-fluoronorepinephrine]
- neuronal uptake and storage [9]: share the same presynaptic mechanisms for the uptake, storage, and synthesis as the parent molecules
- neuronal uptake and storage ([9]; listed as racemic 6-fluoronorepinephrine): taken up and stored by adrenergic nerve terminals

— patent US5254726A, “No-carrier-added (NCA) aryl (18E) fluorides via the nucleophilic aromatic substitution of electron rich aromatic rings” (priority 1991, dated 1993)
